Assays:
[1] = system: normal NK cells expanded with K562-aAPC; assay: percent inhibition of viability; higher = more inhibition; conditions: 72 h, IL-2 2.5 ng/mL
Description: (§1)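 Drug sensitivity and resistance testing on K562-aAPC-expanded normal NK cells: 5 concentrations (10-fold steps over a 10,000-fold range), 72 h at 37 °C, viability by CellTiter-Glo normalised to DMSO and benzethonium chloride controls; DSS from the fitted curve.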

DERL-7 (IL-2 2.5 ng/mL) [2] = assay: as above; conditions: 72 h
IMC-1 (IL-2 20 ng/mL) [3] = assay: as above; conditions: 72 h
KAI3 (IL-2 2.5 ng/mL) [4] = assay: as above; conditions: 72 h
KHYG-1 (IL-2 2.5 ng/mL) [5] = assay: as above; conditions: 72 h
NK-92 (IL-2 2.5 ng/mL) [6] = assay: as above; conditions: 72 h
NK-YS (IL-2 2.5 ng/mL) [7] = assay: as above; conditions: 72 h
NKL (IL-2 2.5 ng/mL) [8] = assay: as above; conditions: 72 h
SNK-6 (IL-2 2.5 ng/mL) [9] = assay: as above; conditions: 72 h
YT (IL-2 2.5 ng/mL) [10] = assay: as above; conditions: 72 h
[11] = system: normal primary NK cells, pool 1 (3 donors) (IL-2 2.5 ng/mL); assay: as above; conditions: 72 h
[12] = system: normal primary NK cells, pool 1 (3 donors), resting (IL-2 0 ng/mL); assay: as above; conditions: 72 h
[13] = system: normal primary NK cells, pool 2 (3 donors) (IL-2 2.5 ng/mL); assay: as above; conditions: 72 h
[14] = system: normal primary NK cells, pool 3 (3 donors) (IL-2 2.5 ng/mL); assay: as above; conditions: 72 h
[15] = system: normal NK cells expanded with K562-aAPC; assay: drug sensitivity score (DSS) (DSS units); higher = more sensitive; extreme values may be limits of the assay; conditions: 72 h; IL-2 2.5 ng/mL
Description: as §1

DERL-7 (IL-2 2.5 ng/mL) [16] = assay: as above; conditions: 72 h
IMC-1 (IL-2 20 ng/mL) [17] = assay: as above; conditions: 72 h
KAI3 (IL-2 2.5 ng/mL) [18] = assay: as above; conditions: 72 h
KHYG-1 (IL-2 2.5 ng/mL) [19] = assay: as above; conditions: 72 h
NK-92 (IL-2 2.5 ng/mL) [20] = assay: as above; conditions: 72 h
NK-YS (IL-2 2.5 ng/mL) [21] = assay: as above; conditions: 72 h
NKL (IL-2 2.5 ng/mL) [22] = assay: as above; conditions: 72 h
SNK-6 (IL-2 2.5 ng/mL) [23] = assay: as above; conditions: 72 h
YT (IL-2 2.5 ng/mL) [24] = assay: as above; conditions: 72 h
[25] = system: normal primary NK cells, pool 1 (3 donors) (IL-2 2.5 ng/mL); assay: as above; conditions: 72 h
[26] = system: normal primary NK cells, pool 1 (3 donors), resting (IL-2 0 ng/mL); assay: as above; conditions: 72 h
[27] = system: normal primary NK cells, pool 2 (3 donors) (IL-2 2.5 ng/mL); assay: as above; conditions: 72 h
[28] = system: normal primary NK cells, pool 3 (3 donors) (IL-2 2.5 ng/mL); assay: as above; conditions: 72 h

COc1cc2ncnc(Nc3ccc(F)c(Cl)c3)c2cc1OCCCN1CCOCC1 [Gefitinib] (max concentration tested 10000 nM)
percent inhibition of viability [%]
Conditions | 1 nM | 10 nM | 100 nM | 1000 nM | 10000 nM
DERL-7 (IL-2 2.5 ng/mL) [2] | 3.62 | -2.09 | 5.77 | 1.47 | 70.4
IMC-1 (IL-2 20 ng/mL) [3] | -4.89 | 1.4 | 2.3 | 2.27 | 13.5
KAI3 (IL-2 2.5 ng/mL) [4] | 0.49 | -0.54 | -4.64 | 11.8 | 56.9
KHYG-1 (IL-2 2.5 ng/mL) [5] | -2.54 | 5.78 | 8.11 | 9.75 | 89.9
NK-92 (IL-2 2.5 ng/mL) [6] | -2.12 | 5.54 | -3.03 | 4.12 | 64.8
NK-YS (IL-2 2.5 ng/mL) [7] | -1.51 | 1.15 | 7.36 | 7.9 | 30.8
NKL (IL-2 2.5 ng/mL) [8] | -4.33 | -6.47 | -2.03 | 12 | 62.4
SNK-6 (IL-2 2.5 ng/mL) [9] | 25.8 | 34.7 | 27.6 | 9.98 | 42.4
YT (IL-2 2.5 ng/mL) [10] | -3.09 | 5.08 | 4.23 | 5.38 | 57.6
[1] | -4.93 | -2.95 | -4.74 | 12.3 | 56.2
[11] | -0.53 | -12.4 | -3.97 | -11.3 | 26.3
[12] | -4.9 | -15.9 | -4.48 | -7.6 | 64.4
[13] | -22.1 | -19.1 | 6.35 | 2.61 | 39.1
[14] | -15.3 | -8.24 | 11.2 | -13.2 | 40.1

Conditions | drug sensitivity score
DERL-7 (IL-2 2.5 ng/mL) [16] | 4.07
IMC-1 (IL-2 20 ng/mL) [17] | 0.3
KAI3 (IL-2 2.5 ng/mL) [18] | 4.99
KHYG-1 (IL-2 2.5 ng/mL) [19] | 6.6
NK-92 (IL-2 2.5 ng/mL) [20] | 4.15
NK-YS (IL-2 2.5 ng/mL) [21] | 2.2
NKL (IL-2 2.5 ng/mL) [22] | 5.38
SNK-6 (IL-2 2.5 ng/mL) [23] | 9.38
YT (IL-2 2.5 ng/mL) [24] | 3.98
[15] | 5.01
[25] | 0.66
[26] | 3
[27] | 2.32
[28] | 1.42

O=S(=O)(c1cccc2c(O)nccc12)N1CCCNCC1 [Hydroxyfasudil] (max concentration tested 37500 nM)
percent inhibition of viability [%]
Conditions | 3.75 nM | 37.5 nM | 375 nM | 3750 nM | 37500 nM
DERL-7 (IL-2 2.5 ng/mL) [2] | 2.41 | -1.56 | -3.11 | 9.25 | 29.7
IMC-1 (IL-2 20 ng/mL) [3] | -4.78 | -3.11 | 0.96 | 2.27 | 5.47
KAI3 (IL-2 2.5 ng/mL) [4] | -11.8 | -3.4 | 2.23 | -8.56 | 32.2
KHYG-1 (IL-2 2.5 ng/mL) [5] | -8.68 | 0.53 | 6.74 | 10.9 | 23
NK-92 (IL-2 2.5 ng/mL) [6] | 2.93 | 2.6 | 5.94 | -2.67 | 19.6
NK-YS (IL-2 2.5 ng/mL) [7] | -6.95 | -1.93 | 3.17 | -3.19 | 18.9
NKL (IL-2 2.5 ng/mL) [8] | 3.67 | 6.42 | 10.9 | 12.7 | 31.9
SNK-6 (IL-2 2.5 ng/mL) [9] | 2.11 | -9.82 | 10.9 | 4.05 | 52
YT (IL-2 2.5 ng/mL) [10] | -4.2 | 0.69 | 4.57 | -4.39 | 2.68
[1] | -7.06 | -1.95 | -4.05 | 11.7 | 18.2
[11] | -10.4 | -4.9 | -10.6 | -4.54 | 17.3
[12] | -1.24 | 11.4 | 11.7 | -5.48 | 13.2
[13] | -5.27 | -3.13 | -1.92 | 7.54 | 31.2
[14] | -6.09 | -6.32 | 12.8 | 7.6 | 21.9

Conditions | drug sensitivity score
DERL-7 (IL-2 2.5 ng/mL) [16] | 2.59
IMC-1 (IL-2 20 ng/mL) [17] | 0
KAI3 (IL-2 2.5 ng/mL) [18] | 1.06
KHYG-1 (IL-2 2.5 ng/mL) [19] | 1.61
NK-92 (IL-2 2.5 ng/mL) [20] | 0.43
NK-YS (IL-2 2.5 ng/mL) [21] | 0.37
NKL (IL-2 2.5 ng/mL) [22] | 3.11
SNK-6 (IL-2 2.5 ng/mL) [23] | 3.39
YT (IL-2 2.5 ng/mL) [24] | 0
[15] | 1.51
[25] | 0.25
[26] | 0.05
[27] | 2.54
[28] | 1.36
